Patent publication US10221420B2, “Aptamer construct” (priority 2014, dated 2019)

Experiments:
HT29 cells [1] = experiment: Tumoursphere formation assay (CSC frequency analysis in vitro); type: cell-based, human; conditions: HT29, 96-well, lower seeding dose (10 or 5 cells/well), versus PBS control
Procedure: Cells were harvested at 80% confluence with trypsin digestion and resuspended as single cells in DMEM/F12 serum-free media following centrifugation (1000×g for 5 min). Cells were plated into 96-well ultralow attachment plates at a density of 5, 10, 50, 100, 500, and 1000 cells per well, or at 4000 cells /well in 6-well ultralow attachment plates for tumoursphere formation. Three experiment groups were used: tumoursphere medium control, free DOX treatment (1, 1.5 and 2 μM) and aptamer-Dox treatment (1, 1.5 and 2 μM equivalent to the same concentration of free DOX). After incubation for 24 h at 37° C. supernatant was removed and replaced with equal volume of fresh CSC medium. A tumoursphere was defined as a cell aggregate with a diameter of over 50 μm with well defined borders. Tumoursphere formation frequency and size were recorded 3 days after seeding. The frequency of CSCs was calculated using the ELDA website (http://bioinf.wehi.edu.au/software/elda/index.html. The tumoursphere formation frequency in 6-well incubation was calculated according to the formula F=Numbers of forming tumourspheres/Number of single cells plated (F is the tumoursphere formation frequency).

[2] = biological target: T1, CD133 expressed on HT29 cells (Homo sapiens, UniProt O43490); experiment: Equilibrium dissociation constant by flow cytometry on CD133 positive HT29 cells; type: binding; conditions: Cy5 labelled
T1 construct: host or cells: HT-29 human colorectal cancer cells
T1 sequence (O43490 20-865): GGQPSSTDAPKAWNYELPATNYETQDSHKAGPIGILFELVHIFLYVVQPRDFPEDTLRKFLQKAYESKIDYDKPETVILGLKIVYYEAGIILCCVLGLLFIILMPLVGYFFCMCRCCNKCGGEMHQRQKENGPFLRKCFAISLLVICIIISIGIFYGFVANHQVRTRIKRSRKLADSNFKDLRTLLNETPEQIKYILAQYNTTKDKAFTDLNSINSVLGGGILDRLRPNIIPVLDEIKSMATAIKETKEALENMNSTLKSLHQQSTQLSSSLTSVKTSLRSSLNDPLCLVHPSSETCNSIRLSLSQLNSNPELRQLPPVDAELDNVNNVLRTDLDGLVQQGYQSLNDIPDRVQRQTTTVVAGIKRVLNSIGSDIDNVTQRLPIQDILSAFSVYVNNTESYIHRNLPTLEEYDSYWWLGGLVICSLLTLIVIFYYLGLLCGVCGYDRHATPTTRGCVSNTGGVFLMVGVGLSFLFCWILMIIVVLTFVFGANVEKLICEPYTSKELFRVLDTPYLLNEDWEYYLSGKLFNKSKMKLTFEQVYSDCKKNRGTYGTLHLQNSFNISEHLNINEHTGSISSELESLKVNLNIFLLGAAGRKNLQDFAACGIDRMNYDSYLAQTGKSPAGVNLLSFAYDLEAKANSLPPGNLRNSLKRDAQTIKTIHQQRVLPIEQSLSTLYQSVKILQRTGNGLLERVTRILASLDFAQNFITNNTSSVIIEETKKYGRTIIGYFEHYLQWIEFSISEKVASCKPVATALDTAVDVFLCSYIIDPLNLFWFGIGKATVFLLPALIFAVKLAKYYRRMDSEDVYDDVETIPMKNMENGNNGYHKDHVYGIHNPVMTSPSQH
Procedure: (§1) To minimize the non-specific binding, 1×10^5 HT29 or HEK293T cells were first incubated with blocking buffer (PBS with 10% FCS, 1% BSA and 1% tRNA) for 20 min. Cells were then washed twice with washing buffer (PBS containing 5% FBS and 2.5 mM MgCl2) and incubated on ice for 1 h with either CD133 aptamer, negative-control aptamer, CD133 aptamer-Dox conjugate or negative-control aptamer-Dox conjugate, all labelled with Cy5 in conjugation buffer (50 mM NaCl, and 2.5 mM MgCl2).
Prior to flow cytometric analysis, cells were again washed twice with washing buffer and then suspended in 150 μl washing buffer. Data was then collected using the flow cytometer (FACS CANTOII, Becton Dickerson) to measure the fluorescence intensity of the aptamer and the binding affinity was determined by normalising the fluorescence intensity with the fluorescent background from that of the negative-control aptamer and then derived using Graph Pad Prism software.

HT29 cells [3] = experiment: Internalisation of aptamer-Dox conjugate by confocal microscopy; type: cell-based, human
Procedure: Both HT29 and HEK293T were seeded at […] cells per well in 8-chamber slide for 24 h in preparation for confocal microscopy. Cells were incubated with blocking buffer (PBS with 10% FCS, 1 mg/mL BSA, 0.1 mg/mL tRNA) for 20 min, followed by washing twice with washing buffer (PBS containing 5% FBS, 2.5 mM MgCl2, and 5 mM NaCl) prior to incubation with 200 nM aptamer, negative-control aptamer, aptamer-Dox conjugate or […] Bisbenzimide Hoechst 33342 (3 mg/ml) (Sigma)) was added to the cells during the final 15 min of incubation. The aptamer solution was removed and the cells were washed three times for 5 min each in PBS prior to visualisation using a FluoView FV10i laser scanning confocal microscope (Olympus).

CD133 (prominin-1) [4] = biological target: T2, CD133 (prominin-1) (UniProt O43490 O43490:20-865); experiment: flow; HT29 cells, 50 mM NaCl, 2.5 mM MgCl2, on ice 1 h; CD133-negative HEK293T gave KD >1000 nM; conditions: tags: native CD133 on HT-29 colorectal cancer cells (ATCC); label: Cy5; hairpin with 10-bp DNA stem
T2 sequence: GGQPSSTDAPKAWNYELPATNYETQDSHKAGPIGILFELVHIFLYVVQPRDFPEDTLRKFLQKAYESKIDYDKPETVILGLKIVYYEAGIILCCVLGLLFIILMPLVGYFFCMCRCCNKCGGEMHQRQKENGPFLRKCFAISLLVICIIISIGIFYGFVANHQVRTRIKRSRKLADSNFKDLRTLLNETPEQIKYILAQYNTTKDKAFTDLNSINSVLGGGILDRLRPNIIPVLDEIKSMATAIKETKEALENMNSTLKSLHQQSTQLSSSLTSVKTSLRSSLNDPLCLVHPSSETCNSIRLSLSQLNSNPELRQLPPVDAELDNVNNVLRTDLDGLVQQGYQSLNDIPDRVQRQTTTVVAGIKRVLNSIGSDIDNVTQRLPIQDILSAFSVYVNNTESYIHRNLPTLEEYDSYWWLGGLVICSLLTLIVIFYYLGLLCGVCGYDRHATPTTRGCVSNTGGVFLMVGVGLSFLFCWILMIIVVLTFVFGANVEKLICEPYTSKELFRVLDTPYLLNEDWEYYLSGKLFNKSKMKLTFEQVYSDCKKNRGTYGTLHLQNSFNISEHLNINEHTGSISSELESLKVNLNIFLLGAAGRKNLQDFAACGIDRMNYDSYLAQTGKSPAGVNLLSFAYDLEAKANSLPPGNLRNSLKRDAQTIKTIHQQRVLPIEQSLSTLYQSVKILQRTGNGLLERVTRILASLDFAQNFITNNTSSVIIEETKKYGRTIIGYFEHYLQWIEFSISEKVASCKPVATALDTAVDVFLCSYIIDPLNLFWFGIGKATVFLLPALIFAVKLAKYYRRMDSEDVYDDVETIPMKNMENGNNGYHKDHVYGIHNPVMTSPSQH
Procedure: as §1, with “Determination of the Equilibrium Dissociation Between the Aptamer-Dox Conjugate and its Target Cells To” for “To”
(§2) To determine whether the conjugation of DOX impedes binding affinity and specificity of the aptamer to CD133 the fluorescently labelled Cy5 aptamer-Dox conjugate was incubated with HT29 colorectal cancer cells and the equilibrium dissociation constant (K_D) was determined via flow cytometric analysis (FIG. 6).
Two cell lines, HT29 and HEK293T, were chosen for the study. […] To ascertain that CD133 aptamer binds to CD133 via specific molecular interaction rather than a non-specific binding between a nucleic acid and CD133, the experiments were repeated with a negative control aptamer-Dox conjugate (FIG. 6B). This negative control aptamer has the identical nucleic acid sequence as the positive aptamer with the exception of a 2'-O-methyl modification instead of a 2'-fluoro chemical modification.

CD133 (prominin-1) [5] = biological target: T2, CD133 (prominin-1); experiment: flow; HT29 cells, 50 mM NaCl, 2.5 mM MgCl2, on ice 1 h; conditions: tags: native CD133 on HT-29 colorectal cancer cells (ATCC); label: Cy5; hairpin with 10-bp DNA stem
Procedure: as §1, with “Determination of the Equilibrium Dissociation Between the Aptamer-Dox Conjugate and its Target Cells To” for “To”
as §2

For `COc1cccc2c1C(=O)c1c(O)c3c(c(O)c1C2=O)C[C@@](O)(C(=O)CO)C[C@@H]3O[C@H]1C[C@H](N)[C@H](O)[C@H](C)O1` [free DOX, doxorubicin], the “frequency of tumoursphere formation” value (HT29 cells [1]) was “no significant decrease”.

In the case of “5′-mCGmCGmCGmCmCGmCA(2′fC)G(2′-fU)A(2′fU)A(2′fC)(2′fU)A(2′fU)GmCGGmCGmCGmCG-(inv dT)-3′ (SEQ ID NO:5) (CGCGCGCCGCACGUAUACUAUGCGGCGCGCGT; 2'-F, 5-methyl-dC modifications; 3' inverted dT; a synthetic aptamer against CD133; modified_base (1)..(1) 5-methyl deoxycytidine; modified_base (3)..(3) 5-methyl deoxycytidine; modified_base (5)..(5) 5-methyl deoxycytidine; modified_base (7)..(8) 5-methyl deoxycytidine; modified_base (10)..(10) 5-methyl deoxycytidine; modified_base (12)..(12) 2′-fluoro 5-methyl deoxycytidine; modified_base (14)..(14) 2′-fluoro deoxyuridine; modified_base (16)..) [CD133 aptamer, hybrid RNA/DNA CD133 aptamer; RNA stem replaced with a 10-bp DNA stem containing 5′methyl-dC]”, the Kd [2] is reported as 84.8 nM and the “internalisation (Cy5 aptamer)” value (HT29 cells [3]) is reported as “successfully internalised”.

B1: CD133 aptamer-Dox conjugate (mixed)
RNA: CGCGCGCCGCACGUAUACUAUGCGGCGCGCG
modifications: DNA stem with 5-methyl-dC; 2'-F C and U in RNA loop; 3' inverted dT; doxorubicin intercalated in stem
Work on B1 yielded a Kd (CD133 (prominin-1) [4]) of 23.9 nM.

B2: CD133 RNA/DNA hybrid aptamer, unconjugated (mixed)
RNA: CGCGCGCCGCACGUAUACUAUGCGGCGCGCG
modifications: DNA stem with 5-methyl-dC (all stem C except as printed); 2'-F C and U in RNA loop ACGUAUACUAU; 3' inverted dT
B2 showed a Kd (CD133 (prominin-1) [5]) of 84.8 nM.
